# Measurements from US20250304537A1 (Repare Therapeutics Inc., priority 2022, published 2025).
# pIC50: −log10 of the molar value. Where two headings read alike, the source gives them in different places.
# Tested on: PKMYT1 (CDK1 pThr14) in FUOV1 cells
# Assay: PKMYT1 cell-based activity assay, CDK1 pThr14 AlphaLISA in FUOV1 cells
# Conditions: read-out: FUOV-1 CDK1 pThr14 IC50
# Description: To determine compound IC50 (PKMYT1 cell-based activity assay, CDK1 pThr14 AlphaLISA), FUOV1 cells were plated into a 96-well TC-treated culture plate at 50000 cells/well in a final volume of 100 μL of media. The plates were then allowed to equilibrate in a biological safety cabinet for 30 minutes before being placed in a humidified incubator at 37 C and 5% CO2 overnight. The next day, 2 μL of PKMYT1 inhibitors or DMSO were diluted in 400 μL of warmed culture media in a 96-well block using a Biomek FX liquid handler. Compounds were mixed in media and then 25 μL was dispensed into each well of the 96-well cell plate. Plates were centrifuged at 300 g for 10 seconds and then placed in the incubator for 2 hours. After the 2-hour incubation with compound, media was removed via aspiration using a multichannel pipette. 30 μL of 1× AlphaLISA lysis buffer (Perkin Elmer) supplemented with protease and phosphatase inhibitors as well as 1 mM PMSF, was added to each well. Plates were rotated at 500 g for 20 minutes to facilitate lysis. Plates were then sealed with aluminum foil and frozen at −80° C. for at least 1 hour. Lysates were thawed at 37° C. for 10 minutes, then 10 μL of each lysate was transferred in duplicate to a white 384-well assay plate. Antibody mixture was prepared in 1× AlphaLISA assay buffer (Perkin Elmer) containing antibodies (5 nM final concentration for rabbit pThr14-CDK1 from Abcam #ab58509 and mouse total CDK1 from ThermoFisher Scientific #33-1800). 5 μL of antibody mixture was added to each well of the assay plate. The assay plate was sealed and stored at 4° C. overnight. The next day, AlphaLISA bead mixture (Perkin Elmer) was prepared in 1× AlphaLISA assay buffer. Anti-rabbit IgG Acceptor (Perkin Elmer #AL104C) and anti-mouse IgG Donor beads (Perkin Elmer #AS104D) were prepared to a concentration of 80 μg/ml in assay buffer. 5 μL of bead mixture was added to each well of the assay plate (20 μg/ml final concentration for each bead). The plate was protected from light and incubated for 2 hours at room temperature. After a 2-hour incubation with beads, the plate was read using the Perkin Elmer EnVision Multimode plate reader with excitation at 680 nm and emission at 615 nm.
SMILES,"pIC50 (2 h, 2 h compound incubation)",further results
Cc1c(F)cc2[nH]ncc2c1-c1nc(-c2cccnc2NCC(F)(F)F)nc(C(N)=O)c1N [Compound 849],,"pIC50 (2 h, 2 hours with compound): 6.76"
Cc1ccnc(Nc2cc(F)ccc2-c2nc(C(N)=O)c(N)c(-c3c(C)ccc4[nH]ncc34)n2)n1 [Compound 534],7.06,
Cc1ccc2[nH]ncc2c1-c1nc(-c2ccc(Cl)nc2Nc2nccnc2F)nc(C(N)=O)c1N [Compound 825],,"pIC50 (2 h, 2 hours with compound): 8.05"
"Cc1ccnc(Nc2ncccc2-c2nc(C(N)=O)c(N)c(-c3c(C)ccc4[nH]ncc34)n2)n1 [Compound 565, 5-amino-6-(5-methyl-1H-indazol-4-yl)-2-(2-((4-methylpyrimidin-2-yl)amino)pyridin-3-yl)pyrimidine-4-carboxamide]",7.15,
Cc1ccc2[nH]ncc2c1-c1nc(-c2ccc(F)cc2Nc2ncccc2F)nc(C(N)=O)c1N [Compound 527],7.96,
Cc1ccc2[nH]ncc2c1-c1nc(-c2cc(F)c(F)cc2NC2COC2)nc(C(N)=O)c1N [Compound 497],7.28,
Cc1cc(F)c2[nH]ncc2c1-c1nc(-c2cc(F)cnc2N[C@H]2CC[C@@](C)(O)CC2)nc(C(N)=O)c1N [Compound 875],,"pIC50 (2 h, 2 hours with compound): 6.77"
Cc1ccc2[nH]ncc2c1-c1nc(-c2cccnc2NCC2COC2)nc(C(N)=O)c1N [Compound 676],< 5.00,
Cc1ccc2[nH]ncc2c1-c1nc(-c2ccc(Cl)nc2NC2CC(F)(F)C2)nc(C(N)=O)c1N [Compound 802],,"pIC50 (2 h, 2 hours with compound): 6.13"
Cc1ccc2[nH]ncc2c1-c1nc(-c2cccnc2NC2CC(=O)N(C)C2)nc(C(N)=O)c1N (centres unmarked) [Compound 552],6.61,
Cc1ccc2[nH]ncc2c1-c1nc(-c2cc(F)ccc2NS(=O)(=O)C(F)F)nc(C(N)=O)c1N [Compound 493],6.17,
Cc1cc(Nc2cc(F)ccc2-c2nc(C(N)=O)c(N)c(-c3c(C)ccc4[nH]ncc34)n2)ncn1 [Compound 524],7.16,
Cc1ccc2[nH]ncc2c1-c1cc2c(oc3ccc(OC4CCOCC4)nc32)c(C(N)=O)c1N [Compound 635],6.40,
[2H]C([2H])([2H])c1ccc2[nH]ncc2c1-c1nc(-c2cc(F)cnc2N[C@H]2C[C@@](C)(O)C2)nc(C(N)=O)c1N [Compound 964],,"pIC50 (2 h, 2 hours with compound): 7.17"
Cc1ccc2[nH]ncc2c1-c1nc(-c2cc(F)cnc2N[C@H]2CCOC2)nc(C(N)=O)c1N [Compound 711],7.85,
"Cc1ccc2[nH]ncc2c1-c1nc(-c2cccnc2Nc2nc(F)ccc2F)nc(C(N)=O)c1O [Compound 806, 2-(2-((3,6-difluoropyridin-2-yl)amino)pyridin-3-yl)-5-hydroxy-6-(5-methyl-1H-indazol-4-yl)pyrimidine-4-carboxamide]",,"pIC50 (2 h, 2 hours with compound): < 5.00"
Cc1ccc2[nH]ncc2c1-c1nc(-c2cccnc2NCCC#N)nc(C(N)=O)c1N [Compound 542],7.11,
Cc1cc(F)c2[nH]ncc2c1-c1nc(-c2ccc(F)nc2Nc2ncccc2C(F)F)nc(C(N)=O)c1N [Compound 878],,"pIC50 (2 h, 2 hours with compound): 7.44"
Cc1ccc2[nH]ncc2c1-c1nc(-c2cncnc2NCC(F)(F)F)nc(C(N)=O)c1N [Compound 573],6.74,
Cc1ccc2[nH]ncc2c1-c1nc(-c2cc(F)ccc2NS(=O)(=O)C2CCC2)nc(C(N)=O)c1N [Compound 571],6.55,
NC(=O)c1nc(-c2cccnc2NCC(F)(F)F)nc(-c2c(Cl)ccc3[nH]ncc23)c1N [Compound 912],,"pIC50 (2 h, 2 hours with compound): 6.75"
Cc1c(F)cc2[nH]ncc2c1-c1nc(-c2ccc(C(F)F)nc2Nc2ncccc2F)nc(C(N)=O)c1N [Compound 855],,"pIC50 (2 h, 2 hours with compound): 7.89"
Cc1ccc2[nH]ncc2c1-c1cc2c(oc3ccc(N4CCOCC4)nc32)c(C(N)=O)c1N [Compound 652],6.58,

SMILES,"pIC50 (2 h, 2 h compound incubation)",further results
Cc1ccc2[nH]ncc2c1-c1nc(-c2cccnc2NC2CC(F)(F)C2)nc(C(N)=O)c1N [Compound 675],7.28,
Cc1ccc2[nH]ncc2c1-c1nc(-c2ccc(F)cc2Nc2cc(C(C)(C)O)ccn2)nc(C(N)=O)c1N [Compound 633],6.00,
Cc1ccc2[nH]ncc2c1-c1nc(-c2cccnc2Nc2cccc(F)n2)nc(C(N)=O)c1N [Compound 659],6.73,
Cc1ccc2[nH]ncc2c1-c1nc(-c2ccc(F)nc2Nc2cccnc2F)nc(C(N)=O)c1N [Compound 917],,"pIC50 (2 h, 2 hours with compound): 6.69"
Cc1ccc2[nH]ncc2c1-c1nc(-c2cc(F)cnc2NCC(F)F)nc(C(N)=O)c1N [Compound 504],7.51,
Cc1cccc(Nc2ncccc2-c2nc(C(N)=O)c(N)c(-c3c(C)ccc4[nH]ncc34)n2)c1 [Compound 634],6.24,
NC(=O)c1nc(-c2ccc(F)cc2Nc2ncccn2)nc(-c2c(Cl)ccc3[nH]ncc23)c1N [Compound 949],,"pIC50 (2 h, 2 hours with compound): 7.30"
COc1ccnc(Nc2cc(F)ccc2-c2nc(C(N)=O)c(N)c(-c3c(C)ccc4[nH]ncc34)n2)n1 [Compound 570],6.95,
Cc1ccc2[nH]ncc2c1-c1nc(-c2cc(F)cnc2N[C@@H]2C[C@H]3CC[C@@H]2O3)nc(C(N)=O)c1N [Compound 898],,pIC50 (2 hours with compound): 7.12
Cc1ccc2[nH]ncc2c1-c1nc(-c2ccncc2Nc2ncccn2)nc(C(N)=O)c1N [Compound 951],,"pIC50 (2 h, 2 hours with compound): 7.80"
Cc1ccc2[nH]ncc2c1-c1nc(-c2cccnc2NC[C@@H]2CCO2)nc(C(N)=O)c1N [Compound 650],6.75,
Cc1ccc2[nH]ncc2c1-c1nc(-c2cc(F)ccc2Nc2ncc(C#N)s2)nc(C(N)=O)c1N [Compound 506],6.63,
Cc1ccc2[nH]ncc2c1-c1cc(-c2ccnc(OCc3nccn3C)n2)nc(C(N)=O)c1N [Compound 301],,"pIC50 (2 h, 2 h incubation): 7.41"
Cc1ccc2[nH]ncc2c1-c1nc(-c2ccc(F)cc2Nc2cccnn2)nc(C(N)=O)c1N [Compound 515],7.96,
Cc1ccc2[nH]ncc2c1-c1nc(-c2ccc(F)cc2Nc2ccncc2C#N)nc(C(N)=O)c1N [Compound 590],8.10,
Cc1ccc2[nH]ncc2c1-c1nc(-c2cn(C)nc2Nc2ncccc2F)nc(C(N)=O)c1N [Compound 925],,"pIC50 (2 h, 2 hours with compound): 6.89"
Cc1ccc2[nH]ncc2c1-c1nc(-c2cccnc2NCC2CCOCC2)nc(C(N)=O)c1N [Compound 593],6.53,
NC(=O)c1nc(-c2ccc(F)nc2Nc2ncccn2)nc(-c2c(Cl)ccc3[nH]ncc23)c1N [Compound 923],,"pIC50 (2 h, 2 hours with compound): 7.17"
Cc1ccc2[nH]ncc2c1-c1cc(-c2ccnc(OCc3ccco3)n2)nc(C(N)=O)c1N [Compound 213],,"pIC50 (2 h, 2 h incubation): 6.39"
Cc1cncc(Nc2cc(F)ccc2-c2nc(C(N)=O)c(N)c(-c3c(C)ccc4[nH]ncc34)n2)c1 [Compound 666],7.42,
Cc1ccc2[nH]ncc2c1-c1nc(-c2cc(F)cnc2N[C@H]2CC[C@H](O)C2)nc(C(N)=O)c1N [Compound 812],,"pIC50 (2 h, 2 hours with compound): 7.59"
Cc1ccc2[nH]ncc2c1-c1nc(-c2ccc(C(F)F)nc2Nc2ncccn2)nc(C(N)=O)c1N [Compound 928],,"pIC50 (2 h, 2 hours with compound): 6.84"
Cc1cc(Nc2cc(F)ccc2-c2nc(C(N)=O)c(N)c(-c3c(C)ccc4[nH]ncc34)n2)ccn1 [Compound 564],7.82,

# More lines, main results first:
"pIC50 (2 h, 2 h compound incubation)",SMILES,further results
6.11,Cc1ccc2[nH]ncc2c1-c1nc(-c2cc(F)cnc2NC2CCC(F)(F)CC2)nc(C(N)=O)c1N [Compound 731],
8.22,Cc1ccc(F)c(Nc2ncccc2-c2nc(C(N)=O)c(N)c(-c3c(C)cc(F)c4[nH]ncc34)n2)n1 [Compound 773],
6.99,Cc1ccc2[nH]ncc2c1-c1nc(-c2cc(F)c(C#N)cc2NC(C)C(F)(F)F)nc(C(N)=O)c1N (centres unmarked) [Compound 755],
6.25,Cc1cccc(-c2nc(C(N)=O)c(N)c(-c3c(C)ccc4[nH]ncc34)n2)c1Nc1ncccn1 [Compound 774],
8.05,Cc1ccc2[nH]ncc2c1-c1nc(-c2cccnc2N[C@@H]2CC[C@@H](O)C2)nc(C(N)=O)c1N [Compound 786],
7.14,Cc1cnc(C)c(Nc2cc(C#N)ccc2-c2nc(C(N)=O)c(N)c(-c3c(C)ccc4[nH]ncc34)n2)n1 [Compound 750],
5.95,"Cc1ccnc(Nc2c(F)cccc2-c2nc(C(N)=O)c(N)c(-c3c(C)ccc4[nH]ncc34)n2)n1 [Compound 776, 5-amino-2-(3-fluoro-2-((4-methylpyrimidin-2-yl)amino)phenyl)-6-(5-methyl-1H-indazol-4-yl)pyrimidine-4-carboxamide]",
7.72,CCc1cccnc1Nc1ncccc1-c1nc(C(N)=O)c(N)c(-c2c(C)ccc3[nH]ncc23)n1 [Compound 730],
7.60,Cc1ccc2[nH]ncc2c1-c1nc(-c2ccc(C#N)cc2NC2CCOCC2)nc(C(N)=O)c1N [Compound 782],
7.41,Cc1cnc(C)c(Nc2ncccc2-c2nc(C(N)=O)c(N)c(-c3c(C)ccc4[nH]ncc34)n2)n1 [Compound 718],
